The record followed here is patent publication US9873709B2 (priority 2013, dated 2018).

Structures are written as SMILES.

For this experiment, the system named is JAK1-dependent STAT6 phosphorylation downstream of IL-13 stimulation in TF-1 human erythroleukemia cells. The experiment can be described thus: cells. The note with it: TF-1, read-out: IL-13-pSTAT6 IC50.
For orientation: IC50 means the point on the concentration scale where inhibition reaches its midpoint. `O=C(CCC(F)(F)F)N1CC=C(c2cccn3nc(Nc4ccc(C(=O)N(CCO)Cc5cccnc5)cc4)nc23)CC1` [Example 2-279, N-(2-hydroxyethyl)-N-(3-pyridylmethyl)-4-[[8-[1-(4,4,4-trifluorobutanoyl)-3,6-dihydro-2H-pyridin-4-yl]-[1,2,4]triazolo[1,5-a]pyridin-2-yl]amino]benzamide]: the IC50 is 38.8 nM. The figure for `O=C(CCC(F)(F)F)N1CC=C(c2cccn3nc(Nc4ccc(C(=O)N5CCCCC5c5cccnc5)cc4)nc23)CC1` (centres unmarked) [Example 2-280, 4,4,4-trifluoro-1-[4-[2-[4-[2-(3-pyridyl)piperidine-1-carbonyl]anilino]-[1,2,4]triazolo[1,5-a]pyridin-8-yl]-3,6-dihydro-2H-pyridin-1-yl]butan-1-one] is 9.5 nM; for `CN1CCC(N(C)C(=O)c2ccc(Nc3nc4c(C5=CCN(C(=O)C6CCCC6)CC5)cccn4n3)cc2)CC1` [Example 2-281, 4-[[8-[1-(cyclopentanecarbonyl)-3,6-dihydro-2H-pyridin-4-yl]-[1,2,4]triazolo[1,5-a]pyridin-2-yl]amino]-N-methyl-N-(1-methyl-4-piperidyl)benzamide] it is 39.4 nM; for `CN1CCC(N(C)C(=O)c2ccc(Nc3nc4c(C5=CCN(C(=O)OC6COC6)CC5)cccn4n3)cc2)CC1` [Example 2-283, oxetan-3-yl-4-[2-[4-[methyl-(1-methyl-4-piperidyl)carbamoyl]anilino]-[1,2,4]triazolo[1,5-a]pyridin-8-yl]-3,6-dihydro-2H-pyridine-1-carboxylate] it is 54 nM.

`CN1CCC(N(C)C(=O)c2ccc(Nc3nc4c(C5=CCN(c6ccccc6)CC5)cccn4n3)cc2)CC1` [Example 2-284, N-methyl-N-(1-methyl-4-piperidyl)-4-[[8-(1-phenyl-3,6-dihydro-2H-pyridin-4-yl)-[1,2,4]triazolo[1,5-a]pyridin-2-yl]amino]benzamide]: the IC50 stood at 163 nM. The figure for `CN1CCC(N(C)C(=O)c2ccc(Nc3nc4c(C5=CCN(C(=O)N6CC7(COC7)C6)CC5)cccn4n3)cc2)CC1` [Example 2-286, N-methyl-N-(1-methyl-4-piperidyl)-4-[[8-[1-(2-oxa-6-azaspiro[3.3]heptane-6-carbonyl)-3,6-dihydro-2H-pyridin-4-yl]-[1,2,4]triazolo[1,5-a]pyridin-2-yl]amino]benzamide] is 1750 nM; for `CN1CCC(N(C)C(=O)c2ccc(Nc3nc4c(C5=CCN(C(=O)CCC#N)CC5)cccn4n3)cc2)CC1` [Example 2-287, 4-[[8-[1-(3-cyanopropanoyl)-3,6-dihydro-2H-pyridin-4-yl]-[1,2,4]triazolo[1,5-a]pyridin-2-yl]amino]-N-methyl-N-(1-methyl-4-piperidyl)benzamide] it is 248 nM; for `CCCC(=O)N1CC=C(c2cccn3nc(Nc4ccc(C(=O)N(C)C5CCN(C)CC5)cc4)nc23)CC1` [Example 2-289, 4-[[8-(1-butanoyl-3,6-dihydro-2H-pyridin-4-yl)-[1,2,4]triazolo[1,5-a]pyridin-2-yl]amino]-N-methyl-N-(1-methyl-4-piperidyl)benzamide] it is 42.9 nM. Turning to `CN1CCC(N(C)C(=O)c2ccc(Nc3nc4c(C5=CCN(C(=O)N6CC(C)(C)C6)CC5)cccn4n3)cc2)CC1` [Example 2-290, 4-[[8-[1-(3,3-dimethylazetidine-1-carbonyl)-3,6-dihydro-2H-pyridin-4-yl]-[1,2,4]triazolo[1,5-a]pyridin-2-yl]amino]-N-methyl-N-(1-methyl-4-piperidyl)benzamide], the IC50 worked out at 37.7 nM. Regarding `CCOC(=O)N1CC=C(c2cccn3nc(Nc4ccc(C(=O)NCCCN5CCN(C)CC5)cc4)nc23)CC1` [Example 2-291, ethyl 4-[2-[4-[3-(4-methylpiperazin-1-yl)propylcarbamoyl]anilino]-[1,2,4]triazolo[1,5-a]pyridin-8-yl]-3,6-dihydro-2H-pyridine-1-carboxylate], the IC50 is 22.3 nM. For `CCOC(=O)N1CC=C(c2cccn3nc(Nc4ccc(C(=O)NCC5CCCN(C)C5)cc4)nc23)CC1` (centres unmarked) [Example 2-293, ethyl 4-[2-[4-[(1-methyl-3-piperidyl)methylcarbamoyl]anilino]-[1,2,4]triazolo[1,5-a]pyridin-8-yl]-3,6-dihydro-2H-pyridine-1-carboxylate], the IC50 was 29.5 nM. In the case of `CCOC(=O)N1CC=C(c2cccn3nc(Nc4ccc(C(=O)NCC5CCNC5)cc4)nc23)CC1` (centres unmarked) [Example 2-296, ethyl 4-[2-[4-(pyrrolidin-3-ylmethylcarbamoyl)anilino]-[1,2,4]triazolo[1,5-a]pyridin-8-yl]-3,6-dihydro-2H-pyridine-1-carboxylate] it was 383 nM; in that of `CCOC(=O)N1CC=C(c2cccn3nc(Nc4ccc(C(=O)NCC5CC56CCNCC6)cc4)nc23)CC1` (centres unmarked) [Example 2-306, ethyl 4-[2-[4-(6-azaspiro[2.5]octan-2-ylmethylcarbamoyl)anilino]-[1,2,4]triazolo[1,5-a]pyridin-8-yl]-3,6-dihydro-2H-pyridine-1-carboxylate], 438 nM; in that of `CCOC(=O)N1CC=C(c2cccn3nc(Nc4ccc(C(=O)N5CCC6CNCC65)cc4)nc23)CC1` (centres unmarked) [Example 2-308, ethyl 4-[2-[4-(3,3a,4,5,6,6a-hexahydro-2H-pyrrolo[2,3-c]pyrrole-1-carbonyl)anilino]-[1,2,4]triazolo[1,5-a]pyridin-8-yl]-3,6-dihydro-2H-pyridine-1-carboxylate], 76.1 nM. In the case of `O=C(CCC(F)(F)F)N1CC=C(c2cccn3nc(Nc4ccc(C(=O)N5CC6CNCC6C5)cc4)nc23)CC1` (centres unmarked) [Example 2-313, 1-[4-[2-[4-(2,3,3a,4,6,6a-hexahydro-1H-pyrrolo[3,4-c]pyrrole-5-carbonyl)anilino]-[1,2,4]triazolo[1,5-a]pyridin-8-yl]-3,6-dihydro-2H-pyridin-1-yl]-4,4,4-trifluoro-butan-1-one] it was 184 nM; in that of `O=C(CCC(F)(F)F)N1CC=C(c2cccn3nc(Nc4ccc(C(=O)N5CCC6(CC5)CNC6)cc4)nc23)CC1` [Example 2-314, 1-[4-[2-[4-(2,7-diazaspiro[3.5]nonane-7-carbonyl)anilino]-[1,2,4]triazolo[1,5-a]pyridin-8-yl]-3,6-dihydro-2H-pyridin-1-yl]-4,4,4-trifluoro-butan-1-one], 194 nM. On to `NC1CC2(CCN(C(=O)c3ccc(Nc4nc5c(C6=CCN(C(=O)CCC(F)(F)F)CC6)cccn5n4)cc3)CC2)C1` [Example 2-315, 1-[4-[2-[4-(2-amino-7-azaspiro[3.5]nonane-7-carbonyl)anilino]-[1,2,4]triazolo[1,5-a]pyridin-8-yl]-3,6-dihydro-2H-pyridin-1-yl]-4,4,4-trifluoro-butan-1-one], for which the IC50 came out at 109 nM. Take `O=C(NCCC1CCCN1)c1ccc(Nc2nc3c(C4=CCN(C(=O)CCC(F)(F)F)CC4)cccn3n2)cc1` (centres unmarked) [Example 2-316, N-(2-pyrrolidin-2-ylethyl)-4-[[8-[1-(4,4,4-trifluorobutanoyl)-3,6-dihydro-2H-pyridin-4-yl]-[1,2,4]triazolo[1,5-a]pyridin-2-yl]amino]benzamide]: the IC50 was 145 nM. The figure for `O=C(NCC1CCCN1)c1ccc(Nc2nc3c(C4=CCN(C(=O)CCC(F)(F)F)CC4)cccn3n2)cc1` (centres unmarked) [Example 2-317, N-(pyrrolidin-2-ylmethyl)-4-[[8-[1-(4,4,4-trifluorobutanoyl)-3,6-dihydro-2H-pyridin-4-yl]-[1,2,4]triazolo[1,5-a]pyridin-2-yl]amino]benzamide] is 228 nM; for `O=C(CCC(F)(F)F)N1CC=C(c2cccn3nc(Nc4ccc(C(=O)N5CCNCC5)cc4)nc23)CC1` [Example 2-318, 4,4,4-trifluoro-1-[4-[2-[4-(piperazine-1-carbonyl)anilino]-[1,2,4]triazolo[1,5-a]pyridin-8-yl]-3,6-dihydro-2H-pyridin-1-yl]butan-1-one] it is 37.7 nM; for `CC1CNCCN1C(=O)c1ccc(Nc2nc3c(C4=CCN(C(=O)CCC(F)(F)F)CC4)cccn3n2)cc1` (centres unmarked) [Example 2-319, 4,4,4-trifluoro-1-[4-[2-[4-(2-methylpiperazine-1-carbonyl)anilino]-[1,2,4]triazolo[1,5-a]pyridin-8-yl]-3,6-dihydro-2H-pyridin-1-yl]butan-1-one] it is 24.3 nM.

With `O=C(CCC(F)(F)F)N1CC=C(c2cccn3nc(Nc4ccc(C(=O)N5CC[C@H]6CNC[C@H]65)cc4)nc23)CC1` [Example 2-320, 1-[4-[2-[4-[(3aS,6aS)-3,3a,4,5,6,6a-hexahydro-2H-pyrrolo[2,3-c]pyrrole-1-carbonyl]anilino]-[1,2,4]triazolo[1,5-a]pyridin-8-yl]-3,6-dihydro-2H-pyridin-1-yl]-4,4,4-trifluoro-butan-1-one], the IC50 is 120 nM. In the case of `O=C(CCC(F)(F)F)N1CC=C(c2cccn3nc(Nc4ccc(C(=O)N5C[C@H]6CNC[C@H]6C5)cc4)nc23)CC1` [Example 2-321, 1-[4-[2-[4-[(3aR,6aS)-2,3,3a,4,6,6a-hexahydro-1H-pyrrolo[3,4-c]pyrrole-5-carbonyl]anilino]-[1,2,4]triazolo[1,5-a]pyridin-8-yl]-3,6-dihydro-2H-pyridin-yl]-4,4,4-trifluoro-butan-1-one] it was 250 nM. Consider `O=C(NC1CC2(CCNCC2)C1)c1ccc(Nc2nc3c(C4=CCN(C(=O)CCC(F)(F)F)CC4)cccn3n2)cc1` [Example 2-322, N-(7-azaspiro[3.5]nonan-2-yl)-4-[[8-[1-(4,4,4-trifluorobutanoyl)-3,6-dihydro-2H-pyridin-4-yl]-[1,2,4]triazolo[1,5-a]pyridin-2-yl]amino]benzamide], for which the IC50 came out at 104 nM.

As for `N[C@]12C[C@H]1CN(C(=O)c1ccc(Nc3nc4c(C5=CCN(C(=O)CCC(F)(F)F)CC5)cccn4n3)cc1)C2` [Example 2-323], the IC50 worked out at 17.5 nM. In the case of `CN1CCCCC1C1CCCN1C(=O)c1ccc(Nc2nc3c(C4=CCN(C(=O)CCC(F)(F)F)CC4)cccn3n2)cc1` (centres unmarked) [Example 2-324, 4,4,4-trifluoro-1-[4-[2-[4-[2-(1-methyl-2-piperidyl)pyrrolidine-1-carbonyl]anilino]-[1,2,4]triazolo[1,5-a]pyridin-8-yl]-3,6-dihydro-2H-pyridin-yl]butan-1-one] it was 8.2 nM.
